According to US20260008788A1, “AZA-FUSED RING COMPOUND, PREPARATION METHOD THEREFOR, AND USE THEREOF IN MEDICINE” (SUZHOU ARK BIOPHARMACEUTICAL CO., LTD., priority 2022, published 2026):

molecular target: T1, PDE4B2 (Homo sapiens, UniProt Q07343); assay: Inhibitory effect on PDE4 enzyme (AMP-Glo Assay kit), PDE4B2; type: biochemical; details: cAMP substrate, 60 minutes at room temperature, AMP-Glo detection
T1 construct: purchased BPS bioscience 60042
Source text: PDE4 enzyme can hydrolyze cAMP to produce AMP. The synthetic PDE4 enzyme inhibitor act together with PDE4 enzyme and the substrate cAMP for a certain period of time, and then the AMP-Glo™ Assay kit was used for detection. The detection is divided into two steps: first, converting the AMP produced in the reaction into ADP, and second, converting ADP into ATP. ATP binds to the reagent and emits […]. The fluorescence value is detected using an […]. IC50 value of the PDE4 enzyme inhibitor was calculated by plotting a graph with the […] values. The specific details are as follows:
The compound plate was centrifuged at 1000 rpm for 1 minute.
% Inhibition={1−(Average RLU of the compound−Average RLU of the positive control of the whole plate)/(Average RLU of the negative control of the whole plate−Average RLU of the positive control of the whole plate)}
The IC50 is calculated by fitting the % inhibition values and the logarithm of the compound concentration to a non-linear regression (dose response-variable slope) using Graphpad 8.0.

T1 sequence (Q07343 1-564 isoform Q07343-2): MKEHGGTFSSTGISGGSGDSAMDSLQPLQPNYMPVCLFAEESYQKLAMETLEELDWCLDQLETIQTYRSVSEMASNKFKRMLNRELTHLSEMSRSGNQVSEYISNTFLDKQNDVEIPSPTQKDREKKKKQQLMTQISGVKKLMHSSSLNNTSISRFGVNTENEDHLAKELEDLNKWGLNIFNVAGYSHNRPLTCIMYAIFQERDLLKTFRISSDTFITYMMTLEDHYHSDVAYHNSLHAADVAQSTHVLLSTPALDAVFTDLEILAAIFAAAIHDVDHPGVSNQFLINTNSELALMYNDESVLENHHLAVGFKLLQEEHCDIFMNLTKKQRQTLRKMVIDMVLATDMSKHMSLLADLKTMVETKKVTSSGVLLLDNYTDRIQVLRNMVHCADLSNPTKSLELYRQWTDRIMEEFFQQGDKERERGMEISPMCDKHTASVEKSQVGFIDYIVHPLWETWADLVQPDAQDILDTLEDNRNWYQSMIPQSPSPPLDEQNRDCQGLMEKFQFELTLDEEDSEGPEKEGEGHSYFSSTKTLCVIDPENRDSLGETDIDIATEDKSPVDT

Row | Structure (SMILES) | IC50 [nM]
1 | Cc1cc(C(F)(F)F)c(CNc2nc(N3CCc4oc(-c5ccc(F)cc5)nc4C3)nc3c2[S@+]([O-])CC3)c(=O)[nH]1 [Example 17, (R)-3-(((2-(2-(4-fluorophenyl)-6,7-dihydrooxazolo[4,5-c]pyridin-5(4H)-yl)-5-oxido-6,7-dihydrothieno[3,2-d]pyrimidin-4-yl)amino)methyl)-6-methyl-4-(trifluoromethyl)pyridin-2(1H)-one] | 8.9
2 | COc1nc(C)cc(C)c1CNc1nc(N2CCc3oc(-c4ccc(F)cc4)nc3C2)nc2c1[S@+]([O-])CC2 [Example 18, (R)-2-(2-(4-fluorophenyl)-6,7-dihydrooxazolo[4,5-c]pyridin-5(4H)-yl)-4-(((2-methoxy-4,6-dimethylpyridin-3-yl)methyl)amino)-6,7-dihydrothieno[3,2-d]pyrimidine 5-oxide] | 0.5
3 | [O-][S@+]1CCc2nc(N3CCc4cc(-c5ncccn5)ccc4C3)nc(NC34CC(CO)(C3)C4)c21 [Example 24, (R)-4-((3-(hydroxymethyl)bicyclo[1.1.1]pentan-1-yl)amino)-2-(6-(pyrimidin-2-yl)-3,4-dihydroisoquinolin-2(1H)-yl)-6,7-dihydrothieno[3,2-d]pyrimidine 5-oxide] | < 0.1

The remaining lines, values ahead:

Row | IC50 [nM] | Structure (SMILES)
4 | 0.63 | [O-][S@+]1CCc2nc(N3CCc4c(cnn4-c4ccccc4)C3)nc(NC3(CO)CCC3)c21 [Example 12, (R)-4-((1-(hydroxymethyl)cyclobutyl)amino)-2-(1-phenyl-1,4,6,7-tetrahydro-5H-pyrazolo[4,3-c]pyridin-5-yl)-6,7-dihydrothieno[3,2-d]pyrimidine-5-oxide]
5 | 0.93 | [O-][S@+]1CCc2nc(N3CCc4oc(C5CCCCC5)nc4C3)nc(NC3(CO)CCC3)c21 [Example 5, (R)-2-(2-cyclohexyl-6,7-dihydrooxazolo[4,5-c]pyridin-5(4H)-yl)-4-((1-(hydroxymethyl)cyclobutyl)amino)-6,7-dihydrothieno[3,2-d]pyrimidine 5-oxide]
